Results reported in patent US10428044B2, “3-amino-1,5,6,7-tetrahydro-4H-indol-4-ones” (Bayer Pharma Aktiengesellschaft, priority 2014, dated 2019).

target: (recombinant) catalytic domain of human Bub1 (amino acids 704-1085) (Homo sapiens (Human), UniProt O43683); assay: Bub1 kinase assay (TR-FRET); assay type: biochemical; conditions: ATP 10 μM final, peptide substrate 1 μM final, 60 min at 22° C., read-out: Biological Assay: Bub1 kinase assay median IC50
In short: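 Readout was TR-FRET between a Eu-labeled antibody complex recognizing phosphoserine and streptavidin-XL665 on the biotinylated peptide, after EDTA stop and 1 h at 22° C. The kinase reaction ran for 60 min at 22° C. Values are means or medians of repeat tests, from 4-parameter fits normalized to enzyme-free and inhibitor-free controls.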

(recombinant) catalytic domain of human Bub1 (amino acids 704-1085), sequence (O43683 704-1085): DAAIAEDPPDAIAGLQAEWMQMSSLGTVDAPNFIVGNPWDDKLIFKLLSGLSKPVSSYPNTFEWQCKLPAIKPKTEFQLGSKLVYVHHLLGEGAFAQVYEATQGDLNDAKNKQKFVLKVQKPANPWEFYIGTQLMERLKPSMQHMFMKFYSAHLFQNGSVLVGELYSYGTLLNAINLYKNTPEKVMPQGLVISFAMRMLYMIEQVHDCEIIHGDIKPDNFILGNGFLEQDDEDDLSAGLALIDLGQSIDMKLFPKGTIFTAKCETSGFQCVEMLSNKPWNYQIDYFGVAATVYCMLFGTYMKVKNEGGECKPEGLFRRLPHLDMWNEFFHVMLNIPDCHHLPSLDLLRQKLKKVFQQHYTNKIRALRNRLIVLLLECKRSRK

SMILES	IC50 [nM]
COc1cc(C(=O)Nc2cc(-c3[nH]c4c(c3Nc3ccccc3)C(=O)CC(C)(C)C4)ccn2)ccc1F [Example 474, N-{4-[6,6-dimethyl-4-oxo-3-(phenylamino)-4,5,6,7-tetrahydro-1H-indol-2-yl]pyridin-2-yl}-4-fluoro-3-methoxybenzamide]	8.63
CC1(C)CC(=O)c2c([nH]c(-c3ccnc(NC(=O)C(C)(C)F)c3)c2Nc2ccccc2)C1 [Example 475, N-{4-[6,6-dimethyl-4-oxo-3-(phenylamino)-4,5,6,7-tetrahydro-1H-indol-2-yl]pyridin-2-yl}-2-fluoro-2-methylpropanamide]	38.7
CC1(C)CC(=O)c2c([nH]c(-c3ccnc(NC(=O)COCc4ccccc4)c3)c2Nc2ccccc2)C1 [Example 476, 2-(benzyloxy)-N-{4-[6,6-dimethyl-4-oxo-3-(phenylamino)-4,5,6,7-tetrahydro-1H-indol-2-yl]pyridin-2-yl}acetamide]	8.04
CC1(C)CC(=O)c2c([nH]c(-c3ccnc(NC(=O)C4CC4(F)F)c3)c2Nc2ccccc2)C1 (stereo not drawn) [Example 477, N-{4-[6,6-dimethyl-4-oxo-3-(phenylamino)-4,5,6,7-tetrahydro-1H-indol-2-yl]pyridin-2-yl}-2,2-difluorocyclopropanecarboxamide]	6.62
CC1(C)CC(=O)c2c([nH]c(-c3ccnc(NC(=O)c4cnn(Cc5ccccc5)c4)c3)c2Nc2ccccc2)C1 [Example 478, 1-benzyl-N-{4-[6,6-dimethyl-4-oxo-3-(phenylamino)-4,5,6,7-tetrahydro-1H-indol-2-yl]pyridin-2-yl}-1H-pyrazole-4-carboxamide]	4.23
COc1ccc(Cn2cc(C(=O)Nc3cc(-c4[nH]c5c(c4Nc4ccccc4)C(=O)CC(C)(C)C5)ccn3)cn2)cc1 [Example 479, N-{4-[6,6-dimethyl-4-oxo-3-(phenylamino)-4,5,6,7-tetrahydro-1H-indol-2-yl]pyridin-2-yl}-1-(4-methoxybenzyl)-1H-pyrazole-4-carboxamide]	5.09
CC1(C)CC(=O)c2c([nH]c(-c3ccnc(NC(=O)c4cncs4)c3)c2Nc2ccccc2)C1 [Example 480, N-{4-[6,6-dimethyl-4-oxo-3-(phenylamino)-4,5,6,7-tetrahydro-1H-indol-2-yl]pyridin-2-yl}-1,3-thiazole-5-carboxamide]	6.3
Cc1ccc(CO)c(Nc2c(-c3ccncc3)[nH]c3c2C(=O)CC(C)(C)C3)c1 [Example 481, 3-{[2-(hydroxymethyl)-5-methylphenyl]amino}-6,6-dimethyl-2-(pyridin-4-yl)-1,5,6,7-tetrahydro-4H-indol-4-one]	78.6
Cc1ccc(Nc2c(-c3ccncc3)[nH]c3c2C(=O)CC(C)(C)C3)c(CO)c1 [Example 482, 3-{[2-(hydroxymethyl)-4-methylphenyl]amino}-6,6-dimethyl-2-(pyridin-4-yl)-1,5,6,7-tetrahydro-4H-indol-4-one]	12.2
Cc1cccc(Nc2c(-c3ccncc3)[nH]c3c2C(=O)CC(C)(C)C3)c1CO [Example 483, 3-{[2-(hydroxymethyl)-3-methylphenyl]amino}-6,6-dimethyl-2-(pyridin-4-yl)-1,5,6,7-tetrahydro-4H-indol-4-one]	9.48
O=C1CCCc2[nH]c(-c3ccnc(NCCCCc4ccccc4)c3)c(Nc3ccccc3)c21 [Example 484, 3-(phenylamino)-2-{2-[(4-phenylbutyl)amino]pyridin-4-yl}-1,5,6,7-tetrahydro-4H-indol-4-one]	907
CC1(C)CC(=O)c2c([nH]c(-c3ccncc3)c2Nc2ccc(F)cc2CO)C1 [Example 485, 3-{[4-fluoro-2-(hydroxymethyl)phenyl]amino}-6,6-dimethyl-2-(pyridin-4-yl)-1,5,6,7-tetrahydro-4H-indol-4-one]	5.84
CC1(C)CC(=O)c2c([nH]c(-c3ccncc3)c2Nc2cccc(F)c2CO)C1 [Example 486, 3-{[3-fluoro-2-(hydroxymethyl)phenyl]amino}-6,6-dimethyl-2-(pyridin-4-yl)-1,5,6,7-tetrahydro-4H-indol-4-one]	3.45
CC1(C)CC(=O)c2c([nH]c(-c3ccncc3)c2Nc2cc(F)ccc2CO)C1 [Example 487, 3-{[5-fluoro-2-(hydroxymethyl)phenyl]amino}-6,6-dimethyl-2-(pyridin-4-yl)-1,5,6,7-tetrahydro-4H-indol-4-one]	3.35
CC1(C)CC(=O)c2c([nH]c(-c3ccncc3)c2Nc2ccccc2C(C)(C)O)C1 [Example 488, 3-{[2-(2-hydroxypropan-2-yl)phenyl]amino}-6,6-dimethyl-2-(pyridin-4-yl)-1,5,6,7-tetrahydro-4H-indol-4-one]	39.1
O=C1CCCc2[nH]c(-c3ccnc(NCCc4ccccc4)c3)c(Nc3ccccc3)c21 [Example 489, 3-(phenylamino)-2-{2-[(2-phenylethyl)amino]pyridin-4-yl}-1,5,6,7-tetrahydro-4H-indol-4-one]	3320
O=C1CCCc2[nH]c(-c3ccnc(NCCCc4ccccc4)c3)c(Nc3ccccc3)c21 [Example 490, 3-(phenylamino)-2-{2-[(3-phenylpropyl)amino]pyridin-4-yl}-1,5,6,7-tetrahydro-4H-indol-4-one]	2560

SMILES	IC50 [nM]
CCO/N=C1\CC(C)(C)Cc2[nH]c(-c3ccncc3)c(Nc3ccccc3)c21 [Example 491, 4-(ethoxyimino)-6,6-dimethyl-N-phenyl-2-(pyridin-4-yl)-4,5,6,7-tetrahydro-1H-indol-3-amine]	1240
Cn1ccnc1COCC(=O)Nc1cc(-c2[nH]c3c(c2Nc2ccccc2)C(=O)CCC3)ccn1 [Example 493, 2-[(1-methyl-1H-imidazol-2-yl)methoxy]-N-{4-[4-oxo-3-(phenylamino)-4,5,6,7-tetrahydro-1H-indol-2-yl]pyridin-2-yl}acetamide]	8.63
Cn1ncnc1COCC(=O)Nc1cc(-c2[nH]c3c(c2Nc2ccccc2)C(=O)CCC3)ccn1 [Example 494, 2-[(1-methyl-1H-1,2,4-triazol-5-yl)methoxy]-N-{4-[4-oxo-3-(phenylamino)-4,5,6,7-tetrahydro-1H-indol-2-yl]pyridin-2-yl}acetamide]	10.9
O=C(COCc1ccccn1)Nc1cc(-c2[nH]c3c(c2Nc2ccccc2)C(=O)CCC3)ccn1 [Example 495, N-{4-[4-oxo-3-(phenylamino)-4,5,6,7-tetrahydro-1H-indol-2-yl]pyridin-2-yl}-2-(pyridin-2-ylmethoxy)acetamide]	10.6
Cc1ncsc1COCC(=O)Nc1cc(-c2[nH]c3c(c2Nc2ccccc2)C(=O)CCC3)ccn1 [Example 496, 2-[(4-methyl-1,3-thiazol-5-yl)methoxy]-N-{4-[4-oxo-3-(phenylamino)-4,5,6,7-tetrahydro-1H-indol-2-yl]pyridin-2-yl}acetamide]	6.46
CC1(C)CC(=O)c2c([nH]c(-c3ccnc(NCCCc4ccccc4)c3)c2Nc2ccccc2)C1 [Example 497, 6,6-dimethyl-3-(phenylamino)-2-{2-[(3-phenylpropyl)amino]pyridin-4-yl}-1,5,6,7-tetrahydro-4H-indol-4-one]	1440
CC1(C)CC(=O)c2c([nH]c(-c3ccnc(NCCc4ccccc4)c3)c2Nc2ccccc2)C1 [Example 498, 6,6-dimethyl-3-(phenylamino)-2-{2-[(2-phenylethyl)amino]pyridin-4-yl}-1,5,6,7-tetrahydro-4H-indol-4-one]	1260
O=C1CCCc2[nH]c(-c3ccnc(NCc4ccc(F)cc4)c3)c(Nc3ccccc3)c21 [Example 499, 2-{2-[(4-fluorobenzyl)amino]pyridin-4-yl}-3-(phenylamino)-1,5,6,7-tetrahydro-4H-indol-4-one]	830
O=C1CCCc2[nH]c(-c3ccnc(NCc4cncs4)c3)c(Nc3ccccc3)c21 [Example 500, 3-(phenylamino)-2-{2-[(1,3-thiazol-5-ylmethyl)amino]pyridin-4-yl}-1,5,6,7-tetrahydro-4H-indol-4-one]	356
O=C1CCCc2[nH]c(-c3ccnc(NCc4cscn4)c3)c(Nc3ccccc3)c21 [Example 501, 3-(phenylamino)-2-{2-[(1,3-thiazol-4-ylmethyl)amino]pyridin-4-yl}-1,5,6,7-tetrahydro-4H-indol-4-one]	96.7
O=C(COCC(F)(F)F)Nc1cc(-c2[nH]c3c(c2Nc2ccccc2)C(=O)CCC3)ccn1 [Example 502, N-{4-[4-oxo-3-(phenylamino)-4,5,6,7-tetrahydro-1H-indol-2-yl]pyridin-2-yl}-2-(2,2,2-trifluoroethoxy)acetamide]	14.4
O=C1CCCc2[nH]c(-c3ccncc3)c(Nc3ccccn3)c21 [Example 503, 2-(pyridin-4-yl)-3-(pyridin-2-ylamino)-1,5,6,7-tetrahydro-4H-indol-4-one]	36.1
Cn1ccc(C(=O)Nc2cc(-c3[nH]c4c(c3Nc3ccccc3)C(=O)CC(C)(C)C4)ccn2)n1 [Example 504, N-{4-[6,6-dimethyl-4-oxo-3-(phenylamino)-4,5,6,7-tetrahydro-1H-indol-2-yl]pyridin-2-yl}-1-methyl-1H-pyrazole-3-carboxamide]	6.14
CC1(C)CC(=O)c2c([nH]c(-c3ccnc(NC(=O)c4nccs4)c3)c2Nc2ccccc2)C1 [Example 505, N-{4-[6,6-dimethyl-4-oxo-3-(phenylamino)-4,5,6,7-tetrahydro-1H-indol-2-yl]pyridin-2-yl}-1,3-thiazole-2-carboxamide]	11.1
Cn1cc(C(=O)Nc2cc(-c3[nH]c4c(c3Nc3ccccc3)C(=O)CC(C)(C)C4)ccn2)cn1 [Example 506, N-{4-[6,6-dimethyl-4-oxo-3-(phenylamino)-4,5,6,7-tetrahydro-1H-indol-2-yl]pyridin-2-yl}-1-methyl-1H-pyrazole-4-carboxamide]	7.77
CC1(C)CC(=O)c2c([nH]c(-c3ccnc(NCCCCc4ccccc4)c3)c2Nc2ccccc2)C1 [Example 507, 6,6-dimethyl-3-(phenylamino)-2-{2-[(4-phenylbutyl)amino]pyridin-4-yl}-1,5,6,7-tetrahydro-4H-indol-4-one]	959
